Assay results as given in US20210283056A1, “COMPOSITIONS FOR THERAPEUTICS PRESCREENING” (BARCODE DIAGNOSTICS LTD., priority 2018, published 2021).
Where two headings read alike, the source gives them in different places.

Tests used:
[1] = tested on: 4T1 derived cancers and metastases; details: cited from earlier work; for Effect on tumor growth: Kiew et al., 2012
[2] = tested on: triple negative breast cancer tumors; assay: Barcode analysis in live and dead tumor cells after injection of liposome mixes; type: in vivo, BALB/c female mice; details: 5%
Description: FIGS. 1A-D: Detection of barcodes from liposome mixes with equal relative drug concentrations. […] Potency of the drugs was defined as the ratio of the amount of a barcode in dead cells to the amount of that barcode in live cells. (1D) A bar chart showing fluorescence from dead cells after treatment with two mixes of liposomes.
Each drug has its own specific effective therapeutic dose (ETD), and in order to test efficacy it is reasonable that each liposome mix (a mix of all three types of liposomes to be injected together) should have the same relative amount of each drug. That is, in order to determine an ideal dose, batches of mixed liposomes were generated in which all three drugs were present in a concentration that was either 5%, 1% or 0.1% of the effective therapeutic dose. Table 2 provides the amounts (in ul) of each liposome batch that were added to the mix in order to provide each total dose.
Cell from a triple negative breast cancer tumor were transplanted to the fat pad of BALB/c female mice and allowed to grow to form tumors in the mice. The mice were separated into 3 groups and then each group was injected with the 5%, 1% or 0.1% liposome mixes. 48 hours post injection the tumors were excised, and live/dead cell analysis was performed by FACS, followed by barcode analysis in live and dead cells separately.

Cells growing in culture = assay: Barcode quantification by Real Time PCR, dead vs. live cells; type: cell-based
Procedure: Cells growing in culture were treated with the liposome mixes and 48 hours after exposure the cell were subjected to viability assay. Dead cells from each study group (in triplicates) were first pelleted by centrifugation of supernatant and kept at −20 C until further analysis. Fresh medium supplemented with 10% Presto Blue Reagent (ThermoFisher Scientific) was added to cells and incubated at 37 C for about 90 minutes. 100 ul of each well was transferred to a black 96 wells plate and Fluorescence was recorded ([…]). Viability was calculated as Fluorescence of each sample relative to fluorescence of non-treated cells. Both mixes killed a similar amount of cells. Immediately following the viability assay, adherent cells were detached by addition of trypsin to the wells. Barcode analysis by Real Time PCR was performed as follows. The different barcodes were analyzed using a ThermoFisher Scientific Quantstudiol PCR System. The assay was run with TaqMan Fast Advanced master mix (ThermoFisher Scientific), primers (IDT) and a barcode specific probe labeled on the 5′ end with fluorescent FAM dye and on its 3′ end with a nonfluorescent quencher linked to a Minor Groove Binder (MGB) (ThermoFisher Scientific). […] After preparation of all dilutions, Real Time PCR was used to validate the standard curve. A reaction was run for all barcodes together. Reaction settings were as follow: 2 μL of sample was run in a Real Time Quantstudiol PCR instrument, using fast template protocol. Each sample was run in duplicate. Each barcode tested was compared to a standard curve run on the same plate. Each barcode reaction comprised at least 4 NTCs. In the Set Up, target (barcode tested), task (sample=Unknown/Standard/NTC), name and biological group were assigned to each sample. […] Analysis calculated average amount of barcode copies between replicate samples. This quantity was obtained for 2 μl of sample (volume of sample in RT-PCR reaction) and was adjusted to the final volume of the sample. The ratio of each barcode found in dead vs. live cells was calculated.

[3] = first batch of liposomes (equal liposome number)

| SMILES | Sensitivity of 4T1 derived cancers and metastases ([1]; reported) | Effectiveness relative to the other two drugs ([2]; 1% or 0.1% mixes, patent regards it as likely artifact) [fold] | Potency (barcode in dead cells to live cells) ([2]; 1% or 0.1% of ETD liposome mixes, 48 hours post injection) | Effective at killing the cells (Cells growing in culture; [3]) | Effect on tumor growth ([1]; first couple of days of treatment) | Effect on tumor growth ([1]; later time points) | Effective at killing the cells (Cells growing in culture; second batch of liposomes (equal relative drug concentration)) | Resistance of 4T1 cells ([1]; reported) |
| --- | --- | --- | --- | --- | --- | --- | --- | --- |
| N.N.[Cl][Pt][Cl] [cisplatin] | highly sensitive |  |  |  |  |  |  |  |
| Nc1ccn([C@@H]2O[C@H](CO)[C@@H](O)C2(F)F)c(=O)n1 [Gemcitabine] |  | > 10 | most effective treatment | effective | retards tumor growth | not be effective |  |  |
| COc1cccc2c1C(=O)c1c(O)c3c(c(O)c1C2=O)C[C@@](O)(C(=O)CO)C[C@@H]3O[C@H]1C[C@H](N)[C@H](O)[C@H](C)O1 [doxorubicin] | less so |  |  | effective |  |  | effective | become resistant |
